Data: patent publication US20170056524A1, “COMPOSITIONS AND METHODS FOR TARGETED EPIGENETIC MODIFICATION” (THE TRUSTEES OF THE UNIVERSITY OF PENNSYLVANIA, priority 2014, published 2017)
“Also recorded” adds a separate entry of the source.

Columns and labels:
H3K27me3 = H3K27me3 ChIP-Seq of whole human islets cultured in the absence or presence of Adox; assay type: cell-based
Method: Chromatin immunoprecipitation and preparation of ChIP-Seq libraries was performed on individual cell sorts for each cell type and donor (H3K4me3: Abcam 8580, H3K27me3: Upstate 07-449).
Libraries for H3K4me3, H3K27me3, and input were sequenced on an Illumina GA-IIx to 36 bp. Reads were aligned to hg18 using ELAND. Up to two mismatches were allowed and only reads with a best alignment to a single location were used for further analysis. Enrichment of H3K4me3 was performed on individual donors and cell types using GLITR (FDR=5%) (32) and a pool of human input from various tissues. GLITR was also run on islet cell input samples and any peaks identified in the inputs were filtered from the H3K4me3 enriched regions. Enriched regions in the H3K27me3 data were identified using the program STAR (33) with a sliding window of 5,000 bp, step size of 1,000 bp, and a FDR=0.5%. To ensure fair comparison, H3K4me3 and H3K27me3 profiles from CD4-positive T-cells (23) were determined using the same algorithms and settings.
(§1) Human islets and islets from GlucagonCre; Rosa26EYFP bigenic mice (Herrera et al., 2000; Srinivas et al., 2001) were cultured, treated with 50μM adenosine dialdehyde (Adox, Sigma A7154) for 72 h, FACS sorted as described previously (11), or prepared for immunostaining.
The high incidence of bivalent marks in α-cells, the interesting bivalent pattern of β-cell and α-cell-specific transcription factors in α-cells, and the large overlap with bivalently-marked transcriptional regulators in hESC raised the likelihood that epigenomic manipulations could be exploited to reprogram human α-cells towards the β-cell phenotype. Several drugs, such as adenosine dialdehyde (Adox) and 3-Deazaneplanocin A (DZNep) interfere with histone methylation (24). The general histone methyltransferase inhibitor Adox, which amongst others decreases H3K27me3 levels (24), was employed to test whether modulation of the histone methylation status of human pancreatic islets could promote reprogramming. […]

human islets = assay: Immunofluorescent confocal analysis of Adox-treated human islets; assay type: cell-based
Method: as §1
Immunofluorescent confocal analysis was performed as described previously (Gao et al., Genes Dev. 2010, Jun. 15, 24(12): 1295-305). Sections were blocked with CAS-Block (Invitrogen, 00-8120) and stained using guinea pig anti-insulin 1:500 (Abcam, ab7842), rabbit anti-glucagon 1:250 (Santa Cruz, sc13091), guinea-pig anti-Pdx1 1:1000 (gift from Dr. C. Wright), mouse anti-E-Cadherin 1:500 (BD Transduction Laboratories, 610181), goat anti-GFP (Abcam, ab6673), guinea pig Cy2, guinea pig Cy5, rabbit Cy3, mouse Cy2, mouse Cy5, goat Cy3 (1:500, Jackson-Immunoresearch) antibodies. For quantification of double PDX1+/GCG+ cells, Pdx1-, Glucagon-, E-Cadherin and DAPI staining were performed on untreated (control) and Adox-treated islets. All glucagon-positive cells and all double PDX1+/GCG+ cells were counted manually (8 slides) in each condition and the percentage of PDX1+/GCG+ double-positive cells of all glucagon-positive cells was calculated.

[1] = system: islets from GlucagonCre; Rosa26EYFP mice; assay: Lineage tracing: immunostaining of Adox-treated islets from GlucagonCre; Rosa26EYFP mice; assay type: cell-based; conditions: mouse islets treated with Adox in vitro; not observed in control islets
Method: as §1
Immunofluorescent confocal analysis was performed as described previously (Gao et al., Genes Dev. 2010, Jun. 15, 24(12): 1295-305). […] For quantification of double PDX1+/GCG+ cells, Pdx1-, Glucagon-, E-Cadherin and DAPI staining were performed on untreated (control) and Adox-treated islets. All glucagon-positive cells and all double PDX1+/GCG+ cells were counted manually (8 slides) in each condition and the percentage of PDX1+/GCG+ double-positive cells of all glucagon-positive cells was calculated.
A priori, the co-localization of glucagon with insulin could be due to α- to β-cell fate or β- to α-cell fate conversion. […] For this purpose, islets from GlucagonCre; Rosa26EYFP mice were treated, in which α-cells are permanently marked by yellow fluorescence protein (YFP) expression (27, 28) with Adox in vitro. […]

human β-cells = assay: RNA-Seq of FACS-sorted β-cells from Adox-treated human islets; assay type: cell-based; conditions: Adox-treated β-cells (Adox-β/α vs β/α ratio)
Method: (§2) After total RNA extraction (see above), RNA-Seq libraries were prepared from sorted alpha, beta, and exocrine cells. The detailed protocol can be found on http://ngsc.med.upenn.edu (Lab protocol, Library preparation for RNA-Seq from total RNA). Libraries were single-end sequenced to 100 bp on an Illumina hiSeq2000. Reads from ribosomal RNA and genomic repeats were identified by aligning the 5′ 50 bp of each read to ribosomal sequences and the human repeats in RepBase (version 14.10) using Bowtie (Langmead B., Curr. Protoc. Bioinformatics. 201, December Chapter 11: Unit 117) and allowing for up to three mismatches. The remaining reads were processed with RUM (Grant et al., Bioinformatics 2011. Sep. 15, 27(18): 2518-28) and aligned to the set of known transcripts included in RefSeq, UCSC known genes, and ENSEMBL transcripts, and the human genome (hg18, NCBI build 36.1). Transcript-, exon-, and intron-level quantification was done using only the uniquely aligning reads. This process was repeated separately for each cell type and donor.
(§3) To analyze global gene expression profiles from each sample, RNA-seq read counts aligning to exons of mRNA transcripts in RefSeq were extracted, and these values were normalized to total uniquely aligning reads and transcript length (RPKM). Data for individual genes was summarized by selecting a “representative transcript” with the highest RPKM value for each gene symbol (total=18,822 genes). Gene-level data was then quantile-normalized across all samples to remove bias from the variable expression levels of highly expressed genes, e.g., insulin, glucagon, and highly expressed ncRNAs, which dampen the relative signal of all other genes. Finally, quantile-normalized gene expression values were averaged together for samples of the same cell type to produce a single average gene profile for each cell type. These values were used for all subsequent analyses, including expression comparisons for individual genes of interest.
as §1
(§4) To investigate the transcriptional changes in Adox-treated human islets and confirm increased PDX1 expression, FACS analysis after Adox-treatment was performed using the same antibody panel as described above, followed by RNA-Seq analysis (n=2 treated α, n=2 treated β, technical replicates) and focused on cell-type-specific hormones and transcription factors. To assess whether Adox-treated β-cells become more α-cell like or vice versa, the ratio of expression levels in untreated β-cells and untreated α-cells (β/α) were first compared to the ratio in Adox-treated β-cells and untreated α-cells (Adox-β/α) (FIG. 6E). A decrease in NKX6-1 and MAFA levels, an increase in PDX1 levels and no change in insulin expression were found and no change in the expression levels of the α-cell specific genes glucagon or ARX were observed, giving no indication for a gain of α-cell identity. Second, the ratio of expression values in untreated α-cells and untreated β-cells (α/β) were compared to the ratio in Adox-treated α-cells and untreated β-cells (Adox-α/β) to elucidate whether Adox-treated α-cells become more ‘β-cell like’ (FIG. 6F).

human α-cells = assay: RNA-Seq of FACS-sorted α-cells from Adox-treated human islets; assay type: cell-based; conditions: Adox-treated α-cells (Adox-α/β vs α/β ratio)
Method: as §2, §3, §1, §4

[2] = system: p16 TALE-DNMT (24-repeat TALE fused to DNMT3a-3L) (Xanthomonas TALE / DNMT3a-DNMT3L, engineered?); assay: cell_activity; conditions: HeLa transfection, 48 h, bisulfite sequencing, vs E752A mutant; up to 66.5% at individual CpGs
[3] = system: p16 jTALE-DNMT (18-repeat TALE fused to DNMT3a-3L) (Xanthomonas TALE / DNMT3a-DNMT3L, engineered?); assay: cell_activity; conditions: primary human fibroblasts, lentivirus, 4 days, vs mutant; p16 mRNA decreased about 50%; also active in HeLa and hCASMC
[4] = whole human islets, 50μM Adox 72 h vs untreated

Nc1ncnc2c1ncn2C(C=O)OC(C=O)CO (stereo not shown) [Adox, adenosine dialdehyde]
H3K4me3-enrichment (FIG. 9A legend) (H3K27me3; human islets treated with Adox): decrease
H3K27me3 enrichment at genes carrying a bivalent or monovalent H3K27me3 mark in all pancreatic cell populations (H3K27me3; [4]): strong decrease
H3K27me3 enrichment at the ARX, MAFA and PDX1 loci (H3K27me3; [4]): decrease; also recorded: decreased H3K27me3 levels
co-localization of glucagon and insulin granules within the same islet cell (human islets; 50μM Adox 72 h, not seen in untreated islets): occasional co-occurrence of glucagon and insulin granules within the same islet cell; also recorded: co-localization of glucagon and insulin granules within the same cell; also recorded: co-localization of glucagon and insulin granules in pancreatic cells
PDX1 expression in glucagon-positive cells (PDX1+/GCG+ double-positive cells) (human islets; 50μM Adox 72 h vs untreated): nuclear PDX1-expression in many glucagon-positive cells; also recorded: many double-positive cells
insulin granules in YFP+ (lineage-labeled α) cells [1]: occurrence of insulin granules in YFP+ cells
ARX expression level (human β-cells): no change
MAFA expression level (human β-cells): decrease
NKX6-1 expression level (human β-cells): decrease
glucagon (GCG) expression level (human β-cells): no change
insulin (INS) expression level (human β-cells): no change
ARX expression level (human α-cells): increase
MAFA expression level (human α-cells): slight decrease
NKX6-1 expression level (human α-cells): slight decrease
PDX1 expression level (human α-cells): increase
glucagon (GCG) expression level (human α-cells): no change
insulin (INS) expression level (human α-cells): no change

CCTCCTTCCTTGCCAACGCTGGCT (double strand) [CDKN2A (p16) promoter TALE target, 24 bp]
activity (% average increase in CpG methylation) [2]: 17

TCCTTGCCAACGCTGGCT (double strand) [CDKN2A (p16) promoter jTALE target, 18 bp]
activity (% average increase in CpG methylation) [3]: 10
